Data published in US10150728B2, “Alkylene derivatives” (Shionogi & Co., Ltd., priority 2013, dated 2018).
Each block holds one compound with its values, some of them ahead of it.

What was measured:
recombinant human ACC2 = recombinant human ACC2 (Homo sapiens (Human), UniProt O00763); assay: Measurement of inhibitory activity on human ACC2 (MALDI-TOF MS, acetyl CoA to malonyl CoA conversion); type: biochemical; conditions: Table 154
Procedure, shortened: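 His-tagged human ACC2 (residues 27–2458) from baculovirus-infected Sf-9 cells was preincubated 1 h in pH 7.4 HEPES-KOH buffer with MgCl2, 6-10 mM potassium citrate, glutathione and BSA. Substrate solution held 1 mM ATP, 0.8 mM acetyl CoA and 25-50 mM bicarbonate. After 1–3 h at room temperature, malonyl CoA/(malonyl+acetyl CoA) was read by negative-mode MALDI-TOF MS; citrate, bicarbonate and time varied by enzyme lot.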

recombinant human ACC1 = recombinant human ACC1 (Homo sapiens (Human), UniProt Q13085); assay: Measurement of inhibitory activity on human ACC1 (MALDI-TOF MS, acetyl CoA to malonyl CoA conversion); type: biochemical
From the text: Preparation 2: Preparation of Recombinant Human ACC1
After a cDNA encoding human ACC1 (1 amino acid residue to 2346 amino acid residues from the N-terminus) was cloned from human liver cDNA library (BioChain), human ACC1 gene containing myc-tag and His-tag sequence at 3′ terminus was inserted into pIEXBAC3 (Novagen). Recombinant baculovirus was generated using FlashBACGOLD system (Oxford Expression Technologies) according to the manufacturer's protocol. To express human ACC1, Sf-9 cells were infected with recombinant baculovirus. After infected cells were disrupted, the filtrated lysate was subjected to Ni-affinity chromatography and anion-exchange chromatography. The fractions containing human ACC1 protein were pooled as recombinant human ACC1 solution.
The Measurement of Inhibitory Activity on Human ACC1 and the ACC2
Recombinant human ACC1 and recombinant human ACC2, which were prepared by the method mentioned above, were preincubated with assay buffer solution (50 mM HEPES-KOH (pH 7.4), 10 mM magnesium chloride, 6-10 mM potassium citrate, 4 mM reduced form of glutathione, 1.5 mg/ml bovine serum albumin) for one hour. Then, 0.2 μL of each this invention compound solution (in DMSO) were dispensed to 384-well microplate, 5 μL of the preincubated enzyme solution and 5 μL of substrate solution (50 mM HEPES-KOH (pH 7.4), 1 mM ATP, 0.8 mM acetyl CoA and 25-50 mM potassium bicarbonate) were added to microplate. After centrifugation and shaking, the reaction mixtures were incubated in a humidified box at room temperature for 1 to 3 hours. After the incubation, the enzyme reactions were stopped by the addition of EDTA. Then, after the samples were cocrystallized with CHCA (α-cyano-4-hydroxy cinnamic acid) matrices on MALDI target plate, by using the matrix assist laser […] time-of-flight mass spectrometer (MALDI-TOF MS), samples were measured in reflector negative mode. Deprotonated ions of acetyl CoA (AcCoA) of substrate and malonyl CoA (MalCoA) of the reaction product were detected, then, the conversion rates of acetyl CoA to malonyl CoA was calculated by the intensity of [MalCoA-H]−/(Intensity of [MalCoA-H]−+Intensity of [AcCoA-H]−) using each signal strength. […] In addition, potassium citrate concentrations in assay buffer solution, potassium hydrogen carbonate concentrations in substrate solution and incubation time were adjusted by each lot of enzyme.

recombinant human ACC2, sequence (O00763 27-2458): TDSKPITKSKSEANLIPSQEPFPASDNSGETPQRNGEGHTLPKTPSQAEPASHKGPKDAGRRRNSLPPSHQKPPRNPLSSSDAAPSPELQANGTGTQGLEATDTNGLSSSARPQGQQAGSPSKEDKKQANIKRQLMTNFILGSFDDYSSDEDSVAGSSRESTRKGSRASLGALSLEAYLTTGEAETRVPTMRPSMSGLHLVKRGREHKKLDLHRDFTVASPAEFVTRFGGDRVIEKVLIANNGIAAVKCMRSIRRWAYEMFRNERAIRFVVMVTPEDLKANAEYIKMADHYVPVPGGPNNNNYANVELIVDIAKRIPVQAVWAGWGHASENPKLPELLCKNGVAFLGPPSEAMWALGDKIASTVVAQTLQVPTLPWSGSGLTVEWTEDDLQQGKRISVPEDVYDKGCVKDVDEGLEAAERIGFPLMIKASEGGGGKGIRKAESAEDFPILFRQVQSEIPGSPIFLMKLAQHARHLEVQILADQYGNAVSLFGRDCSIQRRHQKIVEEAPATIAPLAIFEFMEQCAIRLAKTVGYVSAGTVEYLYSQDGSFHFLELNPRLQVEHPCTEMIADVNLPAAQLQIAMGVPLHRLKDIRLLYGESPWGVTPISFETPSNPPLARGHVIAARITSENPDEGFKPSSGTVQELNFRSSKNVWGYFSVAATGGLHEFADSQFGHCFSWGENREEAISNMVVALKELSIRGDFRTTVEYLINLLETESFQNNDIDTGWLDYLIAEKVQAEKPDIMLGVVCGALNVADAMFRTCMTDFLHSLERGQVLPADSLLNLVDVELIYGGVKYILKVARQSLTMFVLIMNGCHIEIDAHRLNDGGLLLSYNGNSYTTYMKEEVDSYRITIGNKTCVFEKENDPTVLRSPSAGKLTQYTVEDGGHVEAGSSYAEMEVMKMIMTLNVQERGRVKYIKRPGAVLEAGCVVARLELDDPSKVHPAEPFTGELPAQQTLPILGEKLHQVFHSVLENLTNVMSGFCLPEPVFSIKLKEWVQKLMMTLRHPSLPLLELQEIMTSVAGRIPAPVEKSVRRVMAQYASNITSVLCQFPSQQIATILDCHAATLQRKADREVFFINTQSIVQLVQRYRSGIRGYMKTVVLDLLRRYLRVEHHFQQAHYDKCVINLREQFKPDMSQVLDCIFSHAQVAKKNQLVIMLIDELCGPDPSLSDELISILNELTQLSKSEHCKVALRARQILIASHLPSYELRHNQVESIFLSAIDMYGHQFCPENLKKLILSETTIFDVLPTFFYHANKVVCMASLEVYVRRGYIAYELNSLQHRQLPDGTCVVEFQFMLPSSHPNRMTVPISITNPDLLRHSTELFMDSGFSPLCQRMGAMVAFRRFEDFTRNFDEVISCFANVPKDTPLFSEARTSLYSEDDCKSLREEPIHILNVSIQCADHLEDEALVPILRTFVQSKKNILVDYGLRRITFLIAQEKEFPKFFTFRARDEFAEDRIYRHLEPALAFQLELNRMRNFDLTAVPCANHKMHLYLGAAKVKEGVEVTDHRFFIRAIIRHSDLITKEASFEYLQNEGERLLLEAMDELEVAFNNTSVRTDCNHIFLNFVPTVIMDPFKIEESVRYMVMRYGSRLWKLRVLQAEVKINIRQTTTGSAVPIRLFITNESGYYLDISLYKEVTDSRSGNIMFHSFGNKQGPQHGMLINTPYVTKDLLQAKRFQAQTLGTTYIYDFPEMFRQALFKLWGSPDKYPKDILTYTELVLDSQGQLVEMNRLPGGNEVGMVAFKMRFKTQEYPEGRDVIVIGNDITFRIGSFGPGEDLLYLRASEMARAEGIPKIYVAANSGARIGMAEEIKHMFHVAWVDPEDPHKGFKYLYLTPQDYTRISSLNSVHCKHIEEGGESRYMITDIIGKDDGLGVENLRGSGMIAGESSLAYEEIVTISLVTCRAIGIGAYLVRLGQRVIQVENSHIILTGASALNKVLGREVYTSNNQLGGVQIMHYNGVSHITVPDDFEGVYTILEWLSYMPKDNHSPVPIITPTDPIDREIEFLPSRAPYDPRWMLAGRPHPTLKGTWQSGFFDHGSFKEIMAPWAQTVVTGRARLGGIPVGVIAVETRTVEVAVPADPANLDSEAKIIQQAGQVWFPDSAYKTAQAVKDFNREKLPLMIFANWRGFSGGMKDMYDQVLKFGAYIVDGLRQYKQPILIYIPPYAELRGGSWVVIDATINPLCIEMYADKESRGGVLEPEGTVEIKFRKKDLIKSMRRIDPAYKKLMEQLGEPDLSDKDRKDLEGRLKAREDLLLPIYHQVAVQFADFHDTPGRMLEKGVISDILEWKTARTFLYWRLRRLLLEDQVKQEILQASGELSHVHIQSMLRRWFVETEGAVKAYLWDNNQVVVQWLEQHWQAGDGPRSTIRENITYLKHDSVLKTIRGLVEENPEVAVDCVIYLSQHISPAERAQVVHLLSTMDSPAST

Structure (SMILES): CC(=O)N[C@@H](C)CC(=O)c1ccc(Oc2ccc(OCC3CC3)cc2Cl)cc1 [Compound I-001]
IC50 (recombinant human ACC2): 71 nM | IC50 (recombinant human ACC1): > 100 µM

Structure (SMILES): CC(=O)N[C@@H](C)CO[C@H]1CC[C@H](Oc2ncc3cc(Br)ccc3n2)CC1 [Compound I-079]
IC50 (recombinant human ACC2): 1760 nM | IC50 (recombinant human ACC1): > 100 µM

Structure (SMILES): CC(=O)N[C@@H](C)CC(=O)c1cnc(Oc2ccc(OCC3CC3)cc2Cl)s1 [Compound I-002]
IC50 (recombinant human ACC2): 770 nM | IC50 (recombinant human ACC1): > 100 µM

Results, then the compound that gave them:

IC50 (recombinant human ACC2): 4500 nM | IC50 (recombinant human ACC1): > 100 µM
Structure (SMILES): CCOc1nc2ccc(OC[C@H]3C[C@H](OC[C@H](C)NC(C)=O)C3)c(C#N)c2s1 [Compound I-103]

IC50 (recombinant human ACC2): 344 nM | IC50 (recombinant human ACC1): > 100 µM
Structure (SMILES): CC(=O)N[C@@H](C)COc1cnc(Oc2ccc3nc(C(C)C)ncc3c2Cl)cn1 [Compound I-081]
